Reference: article PMC9229294, “Pyridazinones and Structurally Related Derivatives with Anti-Inflammatory Activity” (Molecules, 2022)
Read-outs that look alike come from different tables or passages of the source.

Tests used:
FPR1 = target: T1, FPR1 (Homo sapiens, UniProt P21462); settings: FPR1-transfected HL-60 cells, read-out: Ca2+ Mobilization FPR1 EC50 in HL-60 Cells, cited from earlier work
T1 construct: expressed in transfected cells; host or cells: HL-60 cells (FPR1-HL60)
T1 sequence (P21462 1-350): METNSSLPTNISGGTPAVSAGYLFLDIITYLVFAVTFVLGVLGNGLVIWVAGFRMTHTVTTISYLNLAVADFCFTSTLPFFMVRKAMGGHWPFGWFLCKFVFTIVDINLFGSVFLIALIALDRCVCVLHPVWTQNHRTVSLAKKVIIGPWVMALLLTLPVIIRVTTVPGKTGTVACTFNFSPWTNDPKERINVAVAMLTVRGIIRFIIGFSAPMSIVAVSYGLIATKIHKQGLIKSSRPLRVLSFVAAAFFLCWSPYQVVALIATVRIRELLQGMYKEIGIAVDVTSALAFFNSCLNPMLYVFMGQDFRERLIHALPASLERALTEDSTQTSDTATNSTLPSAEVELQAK

[1] = test system: LPS-induced NF-κB activity in THP1-Blue cells; assay: Inhibition of LPS-induced NF-κB transcriptional activity, alkaline phosphatase reporter, THP1-Blue cells; assay type: cell-based, human; settings: for IC50: Homo sapiens, LPS-induced NF-κB activity, human THP1-Blue cells, N.A. = no activity at 50 µM; for Observed class for inhibition of NF-κB activity: experimentally observed, Active or N.A.
Procedure: (§1) Our studies included 175 compounds that were previously synthesized and characterized at NEUROFARBA, Pharmaceutical and Nutraceutical Section, University of Florence, Italy. We previously evaluated the FPR1/FPR2 agonist activity of these compounds by evaluating their ability to induce Ca^2+ mobilization in FPR-transfected HL60 cells and human neutrophils. […] All test compounds were dissolved in DMSO at stock concentrations of 10 mM and stored at −20 °C. For primary screening assays (analysis of NF-κB activation, IL-6 production, and cytotoxicity), the following final concentrations of the compounds were used: 3.125, 6.25, 12.5, 25, and 50 µM; the final concentration of DMSO was 1% in all samples.
The activation of NF-κB was measured using an alkaline phosphatase reporter assay in human monocytic THP1-Blue cells stably transfected with a secreted embryonic alkaline phosphatase gene that is under the control of a promoter inducible by the NF-κB. The THP1-Blue cells (2 × 10^5 cells/well) were pretreated with the test compound or DMSO for 30 min, followed by an addition of 250 ng/mL LPS for 24 h. Alkaline phosphatase activity was determined in cell supernatants using a QUANTI-Blue mix (InvivoGen) and measured at 655 nm and compared with positive control samples (LPS).

[2] = test system: LPS-induced IL-6 production in MonoMac-6 cells; assay: Inhibition of LPS-induced IL-6 production in MonoMac-6 cells (ELISA); assay type: cell-based, human; settings: for IC50: Homo sapiens
Procedure: as §1
A human IL-6 ELISA kit (BD Biosciences, San Jose, CA, USA) was used to measure IL-6 production. […] The cells were pretreated with the test compound or DMSO for 30 min, followed by addition of 250 ng/mL LPS for 24 h. The IC50 values for IL-6 production were calculated by plotting the percentage inhibition against the logarithm of the inhibitor concentration (at least five points).

FPR2 = target: T2, FPR2 (Homo sapiens, UniProt P25090); settings: FPR2-transfected HL-60 cells, read-out: Ca2+ Mobilization FPR2 EC50 in HL-60 Cells, cited from earlier work
T2 construct: expressed in transfected cells; host or cells: HL-60 cells (FPR2-HL60)
T2 sequence (P25090 1-351): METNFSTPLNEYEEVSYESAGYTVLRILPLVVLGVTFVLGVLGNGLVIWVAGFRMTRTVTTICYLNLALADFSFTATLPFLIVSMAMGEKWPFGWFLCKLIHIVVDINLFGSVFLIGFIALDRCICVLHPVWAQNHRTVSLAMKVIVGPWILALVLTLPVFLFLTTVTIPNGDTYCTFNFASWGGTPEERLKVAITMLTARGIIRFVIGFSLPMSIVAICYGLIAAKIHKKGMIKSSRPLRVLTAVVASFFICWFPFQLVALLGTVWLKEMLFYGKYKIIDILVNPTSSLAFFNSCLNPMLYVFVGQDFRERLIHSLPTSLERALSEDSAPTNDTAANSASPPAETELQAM

[3] = Cytotoxicity, CellTiter-Glo, THP1-Blue cells; assay type: cell-based, human; settings: human, THP1-Blue cells; N.T. = no cytotoxicity at 50 µM; read-out: Cytotoxicity IC50 in THP1-Blue Cells
Procedure: as §1
(§2) The cytotoxicity was analyzed with a CellTiter-Glo Luminescent Cell Viability Assay Kit from Promega (Madison, WI, USA), according to the manufacturer’s protocol. The luminescent ATP assays are based on a luciferase enzymatic reaction which uses ATP from viable cells to generate photons. For this assay, the cells were incubated with the compounds under investigation for 24 h. After treatment, the cells were equilibrated to room temperature for 30 min, luciferase + luciferin substrate was added, and the samples were analyzed with a Fluoroscan Ascent FL (Thermo Fisher Scientific, Waltham, MA, USA). The IC50 values were calculated by plotting the percentage inhibition against the logarithm of the inhibitor concentration (at least five points).

[4] = Cytotoxicity, CellTiter-Glo, MonoMac-6 cells; assay type: cell-based, human; settings: human, MonoMac-6 cells
Procedure: as §1, §2

[5] = Table 3, as reported previously (see Table 1)
[6] = MONO-MAC-6, read-out: Inhibition of IL-6 Production IC50 in MonoMac-6 Cells
[7] = MONO-MAC-6, 24 h, read-out: IC50, LPS-induced IL-6 production

SMILES	EC50 (FPR1; agonist activity from Table 1) [µM]	EC50 (FPR1; [5]) [µM]	IC50 [1] [µM]	IC50 [2, 6] [µM]	EC50 (FPR2; agonist activity from Table 1) [µM]	EC50 (FPR2; [5]) [µM]	IC50 at 24 h [3] [µM]	IC50 at 24 h [4] [µM]	Observed class for inhibition of NF-κB activity [1]	IC50 [2, 7] [µM]	Inhibition of LPS-induced IL-6 production (in words) ([2]; MonoMac-6 cells, 250 ng/mL LPS, 24 h)
CC[C@H](C(=O)Nc1ccc(Br)cc1)n1nc(C)cc(Cc2cccc(OC)c2)c1=O [Compound 94]	2.8	2.8	30.8 ± 6.7	14.3 ± 2	2.3	2.3	> 50	> 50	–	–	–
CC[C@@H](C(=O)Nc1ccc(Br)cc1)n1nc(C)cc(Cc2cccc(OC)c2)c1=O [Compound 95]	13.4	13.4	12.1 ± 2.4	9.8 ± 1	22.2	22.2	> 50	> 50	–	–	–
CCC[C@H](C(=O)Nc1ccc(Br)cc1)n1nc(C)cc(Cc2cccc(OC)c2)c1=O [Compound 98]	3	3	10.6 ± 2.3	5.6 ± 0.3	0.84	0.84	> 50	> 50	–	–	–
CC[C@](C)(C(=O)Nc1ccc(Br)cc1)n1nc(C)cc(Cc2cccc(OC)c2)c1=O [Compound 102]	4.5	4.5	22.1 ± 1.6	19 ± 3.1	13.7	13.7	> 50	> 50	–	–	–
CC[C@@](C)(C(=O)Nc1ccc(Br)cc1)n1nc(C)cc(Cc2cccc(OC)c2)c1=O [Compound 103]	7	7	16.6 ± 0.6	7.3 ± 1.2	> 50	> 50	> 50	> 50	–	–	–
COc1cccc(-n2ccc(=O)n(CC(=O)Nc3ccc(Br)cc3)c2=O)c1 [Compound 150]	–	4.3	21.4 ± 3.5	4 ± 1.2	3.6	–	> 50	> 50	Active	< 10	–
O=C(Cn1c(=O)ccn(-c2ccccc2)c1=O)Nc1ccc(Br)cc1 [Compound 153]	12.5	–	20.8 ± 0.5	10.7 ± 0.1	–	8.9	> 50	> 50	Active	< 10	–
CCCn1cc(-c2cccc(OC)c2)c(=O)n(CC(=O)Nc2ccc(Br)cc2)c1=O [Compound 154]	3.3	–	25.6 ± 2.3	2.6 ± 0.3	2.4	–	> 50	> 50	Active	–	–
O=C(Cn1c(-c2ccc([N+](=O)[O-])cc2)csc1=O)Nc1ccc(Br)cc1 [Compound 169]	–	9.1	19.2 ± 0.1	3.2 ± 0.4	> 50	> 50	> 50	> 50	Active	–	potent IL-6 inhibitors
